In one data set the target is GLP-1 receptor (Homo sapiens, UniProt P43220). In words: Human GLP-1 receptor activation assay (CRE-luciferase). In kind it is cell-based. The arrangement: host or cells: CHO-K1. The following applies: for Emax: CHO-K1, 6 h, read-out: GLP-1 receptor Maximum activation (% vs GLP-1); for EC50: CHO-K1 cells transiently transfected, luciferase, 6 hours, 0.1% BSA. As for the experimental part: (§1) Then, the resulting increased luciferase activity was evaluated as a measurement of the effect on each receptor activation.
(§2) For positive control, endogenous ligand GLP-1 or glucagon was used for respective evaluation. The above-mentioned acylated oxyntomodulin peptide analogs of Comparative Example 8-12 were synthesized and used as comparative examples.
(§3) After 3 hours of transfection, medium was exchanged to Alpha Minimal Essential Medium (α-MEM) comprising 10% fetal bovine serum (FBS). Next day, the medium was exchanged to α-MEM comprising the acylated oxyntomodulin peptide analog of the present invention and 0.1% bovine serum albumin (BSA). After 6 hours, dual luciferase assay reagent (Promega) was added in the same amount as the medium in which the cells were submerged, and firefly luciferase and Renilla luciferase activities were successively measured. Firefly luciferase activity values were corrected against Renilla luciferase activity to yield transfection efficiency.

The next data set has as its target glucagon receptor (Homo sapiens, UniProt P47871). Put plainly: Human glucagon receptor activation assay (CRE-luciferase). The data set is classed as cell-based. The arrangement: host or cells: CHO-K1. The note with it: CHO-K1 cells transiently transfected; for Emax: 6 h, relative to glucagon, read-out: GCG receptor Maximum activation (% vs GCG); for EC50: 6 hours, 0.1% BSA, read-out: GCG receptor EC50. As for the experimental part:
as §1, §2, §3

The nature of the next data set: in vivo. The note with it: cynomolgus monkey, sc.

As a reminder, the EC50 is the concentration that produces a half-maximal response. A word on the half-life: it is the time in which the quantity being followed falls by half.

Chain of glucagon receptor (P47871 26-477): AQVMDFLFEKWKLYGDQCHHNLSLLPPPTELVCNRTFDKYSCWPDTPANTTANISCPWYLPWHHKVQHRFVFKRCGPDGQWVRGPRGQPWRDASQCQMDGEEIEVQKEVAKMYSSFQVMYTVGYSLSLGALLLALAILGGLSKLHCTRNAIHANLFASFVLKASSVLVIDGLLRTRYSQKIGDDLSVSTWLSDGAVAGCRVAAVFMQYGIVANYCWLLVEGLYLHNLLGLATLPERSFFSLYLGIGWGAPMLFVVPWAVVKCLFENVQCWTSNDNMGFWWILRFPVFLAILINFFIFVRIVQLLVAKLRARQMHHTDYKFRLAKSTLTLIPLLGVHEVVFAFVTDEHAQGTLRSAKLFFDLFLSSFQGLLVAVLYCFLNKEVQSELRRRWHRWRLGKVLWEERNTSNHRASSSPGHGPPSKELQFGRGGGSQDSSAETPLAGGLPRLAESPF
Chain of GLP-1 receptor (P43220 24-463): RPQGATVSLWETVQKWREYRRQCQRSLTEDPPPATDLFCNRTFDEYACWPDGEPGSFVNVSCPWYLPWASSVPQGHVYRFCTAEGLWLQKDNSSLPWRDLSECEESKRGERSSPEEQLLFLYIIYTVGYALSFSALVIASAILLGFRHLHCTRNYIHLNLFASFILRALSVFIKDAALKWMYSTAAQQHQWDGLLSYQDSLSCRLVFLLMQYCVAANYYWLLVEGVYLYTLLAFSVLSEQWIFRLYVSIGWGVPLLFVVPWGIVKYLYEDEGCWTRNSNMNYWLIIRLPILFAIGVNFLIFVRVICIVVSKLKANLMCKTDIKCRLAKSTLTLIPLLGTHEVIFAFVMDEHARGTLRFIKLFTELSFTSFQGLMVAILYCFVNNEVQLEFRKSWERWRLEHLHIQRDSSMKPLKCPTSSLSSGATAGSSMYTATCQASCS
From the text for in vivo: Cynomolgus monkeys were used to evaluate the pharmacokinetics in monkeys of the acylated oxyntomodulin peptide analogs according to the present invention.

Regarding `CCCCCCCCCCCCCCCCCC(=O)N[C@@H](CCC(=O)NCCOCCOCC(=O)NCCOCCOCC(=O)NCCCC[C@H](NC(=O)[C@H](CC(=O)O)NC(=O)[C@H](CO)NC(=O)[C@@H](NC(=O)[C@H](Cc1ccccc1)NC(=O)[C@@H](NC(=O)CNC(=O)[C@H](CCC(N)=O)NC(=O)C(C)(C)NC(=O)[C@@H](N)Cc1c[nH]cn1)[C@@H](C)O)[C@@H](C)O)C(=O)N[C@@H](CO)C(=O)N[C@@H](CCCCN)C(=O)N[C@@H](Cc1ccc(O)cc1)C(=O)N[C@@H](CC(C)C)C(=O)N[C@@H](CC(=O)O)C(=O)NC(C)(C)C(=O)N[C@@H](CCCNC(=N)N)C(=O)N[C@@H](CCCNC(=N)N)C(=O)N[C@@H](C)C(=O)N[C@@H](CCC(N)=O)C(=O)N[C@@H](CC(=O)O)C(=O)N[C@@H](Cc1ccccc1)C(=O)N[C@H](C(=O)N[C@@H](CCC(N)=O)C(=O)N[C@@H](Cc1c[nH]c2ccccc12)C(=O)N[C@@H](CC(C)C)C(=O)N[C@@H](CCSC)C(=O)N[C@@H](CC(N)=O)C(=O)N[C@H](C(=O)N[C@@H](CCCCN)C(=O)N[C@@H](CCC(=O)O)C(=O)N[C@@H](Cc1ccc(O)cc1)C(=O)N[C@@H](CCC(=O)O)C(=O)N[C@@H](CCCCNC(=O)[C@@H](N)CCCCNC(=O)CCCCCCCCCCCCCCCCC(=O)O)C(=O)N[C@@H](CCC(=O)O)C(=O)N[C@@H](Cc1ccc(O)cc1)C(=O)N[C@@H](CCC(=O)O)C(=O)O)[C@@H](C)O)C(C)C)C(=O)O` [Compound 4], the results for the Emax on GLP-1 receptor and at glucagon receptor were 87.9% and 95.4%, respectively. In addition, the results for the EC50 on GLP-1 receptor and on glucagon receptor were 0.1 to 1 nM and not below 1 nM, respectively. Further, the half-life was 18 to 24 h in “in vivo” (Monkey PK (S.C. half-life)) and 12 to 24 h in “in vivo” (monkey PK half-life).
Turning to `CCCCCCCCCCCCCCCCCC(=O)N[C@@H](CCC(=O)NCCOCCOCC(=O)NCCOCCOCC(=O)NCCCC[C@H](NC(=O)[C@H](CC(=O)O)NC(=O)[C@H](CO)NC(=O)[C@@H](NC(=O)[C@H](Cc1ccccc1)NC(=O)[C@@H](NC(=O)CNC(=O)[C@H](CCC(N)=O)NC(=O)C(C)(C)NC(=O)[C@@H](N)Cc1c[nH]cn1)[C@@H](C)O)[C@@H](C)O)C(=O)N[C@@H](CO)C(=O)N[C@@H](CCCCN)C(=O)N[C@@H](Cc1ccc(O)cc1)C(=O)N[C@@H](CC(C)C)C(=O)N[C@@H](CC(=O)O)C(=O)NC(C)(C)C(=O)N[C@@H](CCCNC(=N)N)C(=O)N[C@@H](CCCNC(=N)N)C(=O)N[C@@H](C)C(=O)N[C@@H](CCC(N)=O)C(=O)N[C@@H](CC(=O)O)C(=O)N[C@@H](Cc1ccccc1)C(=O)N[C@H](C(=O)N[C@@H](CCC(N)=O)C(=O)N[C@@H](Cc1c[nH]c2ccccc12)C(=O)N[C@@H](CC(C)C)C(=O)N[C@@H](CCSC)C(=O)N[C@@H](CC(N)=O)C(=O)N[C@H](C(=O)N[C@@H](CCCCN)C(=O)N[C@@H](CCC(=O)O)C(=O)N[C@@H](Cc1ccc(O)cc1)C(=O)N[C@@H](CCC(=O)O)C(=O)N[C@@H](CCCCNC(=O)COCCOCCNC(=O)COCCOCCNC(=O)COCCOCCNC(=O)CC[C@H](NC(=O)CCCCCCCCCCCCCCCCC(=O)O)C(=O)O)C(=O)N[C@@H](CCC(=O)O)C(=O)N[C@@H](Cc1ccc(O)cc1)C(=O)N[C@@H](CCC(=O)O)C(=O)O)[C@@H](C)O)C(C)C)C(=O)O` [Compound 5], the figures for the Emax at GLP-1 receptor and on glucagon receptor were 93.6% and 99.4%, respectively. Also, the EC50 at GLP-1 receptor and at glucagon receptor was 0.1 to 1 nM throughout. Further, the half-life in “in vivo” (Monkey PK (S.C. half-life)) lay in the range of 18 to 24 h; in the data set “in vivo” (monkey PK half-life) it was 12 to 24 h.
For `CCCCCCCCCCCCCCCCCC(=O)N[C@@H](CCC(=O)NCCOCCOCC(=O)NCCOCCOCC(=O)NCCCC[C@H](NC(=O)[C@H](CC(=O)O)NC(=O)[C@H](CO)NC(=O)[C@@H](NC(=O)[C@H](Cc1ccccc1)NC(=O)[C@@H](NC(=O)CNC(=O)[C@H](CCC(N)=O)NC(=O)C(C)(C)NC(=O)[C@@H](N)Cc1c[nH]cn1)[C@@H](C)O)[C@@H](C)O)C(=O)N[C@@H](CO)C(=O)N[C@@H](CCCCN)C(=O)N[C@@H](Cc1ccc(O)cc1)C(=O)N[C@@H](CC(C)C)C(=O)N[C@@H](CC(=O)O)C(=O)NC(C)(C)C(=O)N[C@@H](CCCNC(=N)N)C(=O)N[C@@H](CCCNC(=N)N)C(=O)N[C@@H](C)C(=O)N[C@@H](CCC(N)=O)C(=O)N[C@@H](CC(=O)O)C(=O)N[C@@H](Cc1ccccc1)C(=O)N[C@H](C(=O)N[C@@H](CCC(N)=O)C(=O)N[C@@H](Cc1c[nH]c2ccccc12)C(=O)N[C@@H](CC(C)C)C(=O)N[C@@H](CCSC)C(=O)N[C@@H](CC(N)=O)C(=O)N[C@H](C(=O)N[C@@H](CCCCN)C(=O)N[C@@H](CCC(=O)O)C(=O)N[C@@H](Cc1ccc(O)cc1)C(=O)N[C@@H](CCC(=O)O)C(=O)N[C@@H](CCCCNC(=O)[C@@H](N)CCCCNC(=O)COCCOCCNC(=O)COCCOCCNC(=O)COCCOCCNC(=O)CC[C@H](NC(=O)CCCCCCCCCCCCCCCCC(=O)O)C(=O)O)C(=O)N[C@@H](CCC(=O)O)C(=O)N[C@@H](Cc1ccc(O)cc1)C(=O)N[C@@H](CCC(=O)O)C(=O)O)[C@@H](C)O)C(C)C)C(=O)O` [Compound 6], the results for the Emax on GLP-1 receptor and on glucagon receptor were 83.8% and 89.1%, respectively. In addition, the EC50 at GLP-1 receptor and on glucagon receptor was 0.1 to 1 nM each time. The half-life was in the range of 12 to 18 h in the data set “in vivo” (Monkey PK (S.C. half-life)) and 12 to 24 h in the data set “in vivo” (monkey PK half-life).
For the molecule `CCCCCCCCCCCCCCCCCC(=O)N[C@@H](CCC(=O)NCCOCCOCC(=O)NCCOCCOCC(=O)NCCCC[C@H](NC(=O)[C@H](CC(=O)O)NC(=O)[C@H](CO)NC(=O)[C@@H](NC(=O)[C@H](Cc1ccccc1)NC(=O)[C@@H](NC(=O)CNC(=O)[C@H](CCC(N)=O)NC(=O)C(C)(C)NC(=O)[C@@H](N)Cc1c[nH]cn1)[C@@H](C)O)[C@@H](C)O)C(=O)N[C@@H](CO)C(=O)N[C@@H](CCCCN)C(=O)N[C@@H](Cc1ccc(O)cc1)C(=O)N[C@@H](CC(C)C)C(=O)N[C@@H](CC(=O)O)C(=O)NC(C)(C)C(=O)N[C@@H](CCCNC(=N)N)C(=O)N[C@@H](CCCNC(=N)N)C(=O)N[C@@H](C)C(=O)N[C@@H](CCC(N)=O)C(=O)N[C@@H](CC(=O)O)C(=O)N[C@@H](Cc1ccccc1)C(=O)N[C@H](C(=O)N[C@@H](CCC(N)=O)C(=O)N[C@@H](Cc1c[nH]c2ccccc12)C(=O)N[C@@H](CC(C)C)C(=O)N[C@@H](CCSC)C(=O)N[C@@H](CC(N)=O)C(=O)N[C@H](C(=O)N[C@@H](CCCCN)C(=O)N[C@@H](CCC(=O)O)C(=O)N[C@@H](Cc1ccc(O)cc1)C(=O)N[C@@H](CCC(=O)O)C(=O)N[C@@H](CCCCNC(=O)CCCCCCCCCCCCCCC)C(=O)N[C@@H](CCC(=O)O)C(=O)N[C@@H](Cc1ccc(O)cc1)C(=O)N[C@@H](CCC(=O)O)C(=O)O)[C@@H](C)O)C(C)C)C(=O)O` [Compound 9], the Emax at GLP-1 receptor came out at 70.4%; on glucagon receptor, 73.3%. In addition, the EC50 on GLP-1 receptor and at glucagon receptor was 0.1 to 1 nM each time. Besides, the results for the half-life in “in vivo” (Monkey PK (S.C. half-life)) and in the data set “in vivo” (monkey PK half-life) were 6 to 12 h and less than 12 h, respectively.

The values are drawn from patent US20230220035A1 (DONG-A ST CO., LTD., published 2023).
